According to ChEMBL document CHEMBL1129582, “Lipophilic, acid-stable, adenosine deaminase-activated anti-HIV prodrugs for central nervous system delivery. 3. 6-Amino prodrugs of 2'-beta-fluoro-2',3'-dideoxyinosine” (J Med Chem, 1996):

Key:
[1] = Anti-HIV activity by using phytohemagglutininin-stimulated peripheral blood mononuclear cell(PHA/PBM) test system; type: functional; conditions: Homo sapiens
[2] = Partition coefficient (logP); type: physicochemical; conditions: octanol/water

Row | SMILES | IC50 [1] [µM] | logP [2]
1 | OCC1CC(F)C(n2cnc3c(F)ncnc32)O1 (centres undefined) | > 5 | –
2 | OCC1CC(F)C(n2cnc3c(Cl)ncnc32)O1 (centres undefined) | 5.9 | –
3 | OCC1CC(F)C(n2cnc3c(NO)ncnc32)O1 (centres undefined) | 6.8 | -0.983
4 | OCC1CC(F)C(n2cnc3c(NOCc4ccccc4)ncnc32)O1 (centres undefined) | > 80 | 1.25
5 | CONc1ncnc2c1ncn2C1OC(CO)CC1F (centres undefined) | > 80 | -0.414
6 | CNc1ncnc2c1ncn2C1OC(CO)CC1F (centres undefined) | 13.1 | –
7 | OCC1CC(F)C(n2cnc3c(O)ncnc32)O1 (centres undefined) | 6.3 | –
8 | CN(C)c1ncnc2c1ncn2C1OC(CO)CC1F (centres undefined) | 18 | 0.797
9 | O=[N+]([O-])c1ncnc2c1ncn2C1OC(CO)CC1F (centres undefined) | 9.6 | -0.395
10 | CCNc1ncnc2c1ncn2C1OC(CO)CC1F (centres undefined) | 11.1 | 0.779
11 | NNc1ncnc2c1ncn2C1OC(CO)CC1F (centres undefined) | 36.3 | –
12 | O=c1[nH]cnc2c1ncn2[C@H]1CC[C@@H](CO)O1 [DIDANOSINE] | 0.3 | –
13 | Nc1ncnc2c1ncn2[C@@H]1O[C@H](CO)C[C@@H]1F [LODENOSINE] | 3.3 | –
